Test results: patent EP4257130A1, “INOBRODIB FOR USE IN THE TREATMENT OF PULMONARY ARTERIAL HYPERTENSION” (Justus-Liebig-Universität Gießen, priority 2022, dated 2023)

Legend:
PAH-FBs [1] = assay: Cell proliferation by BrdU incorporation in PAH fibroblasts; format: cell-based, Mensch; conditions: PAH-FBs isolated ex vivo, various concentrations, 24 h, vs. DMSO
Description: (§1) Diese Untersuchungen führten zu der Erkenntnis, dass die epigenetische Regulation der entwicklungsbedingten TF-Expression in der Lunge durch Modulation der EP300/CREBBP-Funktion rückgängig gemacht werden kann. Die Wirkung des niedermolekularen Inhibitors (Substanz, Wirkstoff) CCS1477 auf die Proliferation von Gefäßzellen, die Apoptose sowie die Gen- und Proteinexpression wurde mit Hilfe geeigneter Assays nach der Transfektion untersucht. Nachdem Zellen zur Subkonfluenz gewachsen sind, wurde ihnen mit steigenden Konzentrationen der selektive EP300-Inhibitor CCS1477 (Chemietek, Katalognummer: CT-CCS1477) hinzugefügt. Die aus PAH-Patienten isolierten FBs wurden also mit dem isoformselektiven HAT-Inhibitor CCS1477 behandelt. […]
(§2) • Abbildung 1: Umkehrung von PAH-Phänotypen durch therapeutische Modulation der dysregulierten HATs EP300 und CREBBP ex vivo • A: PAH-FBs wurden mit siRNAs (siP300) behandelt, die auf EP300 abzielen (n=3), um die genspezifische funktionelle Rolle von EP300 bei der Hyperproliferation ex vivo 48 Stunden nach der Transfektion zu untersuchen. […] Skalenbalken: 50 µm. • E: Die Wirkung der P300-Inhibition (200 µM) auf den Gefäßumbau wurde durch Quantifizierung der prozentualen medialen Wanddicke in den mit dem EP300/CREBBP-Inhibitor CCS1477 inkubierten PCLS im Vergleich zu den mit DMSO inkubierten Kontrollen bewertet. […]

PAH-SMCs [2] = assay: Cell proliferation (hyperproliferative phenotype) in PAH smooth muscle cells; format: cell-based, Mensch; conditions: vs. DMSO
Description: (§3) Diese Untersuchungen führten zu der Erkenntnis, dass die epigenetische Regulation der entwicklungsbedingten TF-Expression in der Lunge durch Modulation der EP300/CREBBP-Funktion rückgängig gemacht werden kann. Die Wirkung des niedermolekularen Inhibitors (Substanz, Wirkstoff) CCS1477 auf die Proliferation von Gefäßzellen, die Apoptose sowie die Gen- und Proteinexpression wurde mit Hilfe geeigneter Assays nach der Transfektion untersucht. Nachdem Zellen zur Subkonfluenz gewachsen sind, wurde ihnen mit steigenden Konzentrationen der selektive EP300-Inhibitor CCS1477 (Chemietek, Katalognummer: CT-CCS1477) hinzugefügt. Die aus PAH-Patienten isolierten FBs wurden also mit dem isoformselektiven HAT-Inhibitor CCS1477 behandelt. Gleichzeitig wurde den Zellen das Lösungsmittel DMSO (Sigma) mit entsprechenden Konzentrationen hinzugefügt.
(§4) PAH-FBs wurden mit verschiedenen Konzentrationen der Substanz CCS1477 oder dem Lösungsmittel DMSO inkubiert, um die Zellproliferation und die Induktion von Apoptose 24 Stunden danach zu untersuchen. […]
(§5) Das therapeutische Potenzial der EP300/CREBBP-Hemmung durch die Substanz CCS1477 wurde untersucht. […] Die Wirkung der EP300-Hemmung auf das vaskuläre Remodelling wurde durch Quantifizierung der prozentualen medialen Wanddicke in den mit der Substanz CCS1477 inkubierten PCLS im Vergleich zu den mit DMSO inkubierten Kontrollen bewertet. […]

PAH-FBs [3] = assay: Apoptosis by Cell Death Detection ELISAPLUS in PAH fibroblasts; format: cell-based, Mensch; conditions: PAH-FBs isolated ex vivo, various concentrations, 24 h, vs. DMSO
Description: as §1, §2

PAH-SMCs [4] = assay: Apoptosis in PAH smooth muscle cells; format: cell-based, Mensch; conditions: vs. DMSO
Description: as §3, §4, §5

PAH-PCLS = assay: Vascular remodelling (medial wall thickness) in precision-cut lung slices ex vivo; format: cell-based, Mensch; conditions: human PAH-PCLS, 200 µM on days 2 and 6, fixed day 10, vessels 20-150 µm, vs. DMSO
Description: Lungengewebeproben wurden von Patienten mit IPAH entnommen. Aus den mit 3% niedrigschmelzender Agarose gefüllten Lungenproben von Patienten mit IPAH wurden mit einem Vibratom (Leica Biosystems) Gewebeschnitte (400 µm dick) angefertigt. Die Lungengewebeschnitte wurden in DMEM-GlutaMAX-Medium mit 10 % fetalem Kälberserum, 1 % Penicillin/Streptomycin und 0,1 % Amphotericin B (Thermo Fisher Scientific) kultiviert, und die Behandlung wurde am zweiten Tag eingeleitet. Die Substanz CCS1477 wurde in einer Konzentration von 200 µM an den Tagen 2 und 6 verabreicht. Am 10. Tag wurde das Gewebe in 4% Paraformaldehyd (Roti-Histofix; Carl Roth) fixiert und in Paraffin eingebettet. Die mediale Wanddicke wurde in allen Gefäßen mit einer Größe von 20-150 µm in den Lungenschnitten gemessen.
as §5, with “untersucht. Dazu wurde die Wirksamkeit auf PAH-FBs und PAH-SMCs geprüft, die aus den Lungenarterien von menschlichen PAH-Patienten und aus den Lungenarterien von Ratten mit MCT-PAH (Rattenmodell mit Monocrotalin) isoliert wurden.” for “untersucht.”

FHR-PAH = FHR-PAH rat model: right heart catheterisation and histology; format: in vivo, Fawn-hooded hypertensive Ratten; conditions: FHR-PAH rats, three times weekly for two weeks
Description: (§6) Um das therapeutische Potenzial der EP300/CREBBP-Hemmung in vivo weiter zu erforschen, haben die Erfinder Versuchstiere in drei verschiedenen Nagetiermodellen mit etablierter PAH mit der Substanz CCS1477 behandelt, wobei CCS1477 durch orale Verabreichung über zwei Wochen lang dreimal wöchentlich verabreicht wurde. Es wurden folgende drei verschiedenen Nagetiermodelle für eine PAH (FHR-PAH, MCT-PAH und SuHx-PAH) getestet: • Fawn-hooded hypertensive Ratten (FHR): Das ist ein genetischer Rattenstamm, bei dem PAH im Alter spontan auftritt und der ähnliche PAH-Anomalien aufweist, wie sie bei IPAH bei Menschen nach 40 Wochen auftreten. • Durch Monocrotalin (MCT) induziertes PAH-Rattenmodell. • Ein SUGEN5416/chronische Hypoxie (SuHx)-Rattenmodell für PAH, bei dem die Ratten eine einmalige Injektion von SUGEN5416 erhielten und anschließend einer chronischen Hypoxie (10% O2) ausgesetzt wurden (SuHx-PAH).
(§7) Für die MCT-PAH wurden männlichen und weiblichen SD-Ratten (Sprague-Dawley-Ratten) subkutan 60 mg/kg MCT (Sigma, Katalog: C2401) injiziert, um PAH zu induzieren. Bei der SuHx-PAH erhielten SD-Ratten eine einmalige subkutane Injektion von SUGEN5416 (20 mg/kg) und wurden drei Wochen lang einer normobaren Hypoxie ausgesetzt, bevor sie für zwei Wochen an die Raumluft zurückkehrten. Zwei Wochen nach der MCT-Injektion bzw. drei Wochen nach der SUGEN5416-Injektion (sobald PAH festgestellt wurde) wurden die Ratten nach dem Zufallsprinzip in vier Gruppen eingeteilt und erhielten zwei Wochen lang dreimal wöchentlich entweder Vehikel (Verabreichung von 1 % Methylcellulose in destilliertem Wasser oder intratracheale Vernebelung von 4 % DMSO in PBS als Negativkontrolle), CCS1477 (Verabreichung von 10 mg/kg in 1 % Methylcellulose + destilliertem Wasser). Einjährige männliche und weibliche FHR-Ratten mit etablierter PAH wurden in dieselben vier Gruppen wie beim MCT-Modell eingeteilt und denselben Behandlungsmethoden unterzogen. Nach zweiwöchiger Behandlung wurde eine Rechtsherzkatheteruntersuchung bei geschlossenem Thorax durchgeführt, um folgende hämodynamischen Daten zu erfassen: Systolischer Rechtsventrikulärer Druck (RVSP), mittlerer PA-Druck (mPAP), Herzzeitvolumen (CO) und Schlagvolumen (SV). Der Gesamtwiderstand der Lunge (TPR) wurde durch Division von mPAP durch CO ermittelt. Nach der hämodynamischen Messung wurden den Ratten Gewebeproben entnommen. Die Experimente wurden gemäß den Richtlinien des Canadian Council on Animal Care durchgeführt. Alle Protokolle wurden von der institutionellen Ethikkommission für Tiere (Tierschutzausschuss der Universität Laval) geprüft und genehmigt (Protokollnummer 2019-018-2). Alle Experimente folgten den Richtlinien für die präklinische Forschung bei PAH.
(§8) • Abbildung 1: Umkehrung von PAH-Phänotypen durch therapeutische Modulation der dysregulierten HATs EP300 und CREBBP ex vivo • A: PAH-FBs wurden mit siRNAs (siP300) behandelt, die auf EP300 abzielen (n=3), um die genspezifische funktionelle Rolle von EP300 bei der Hyperproliferation ex vivo 48 Stunden nach der Transfektion zu untersuchen. Die Zellproliferation wurde durch BrdU-Inkorporation bestimmt. Die Werte wurden auf scrambled siRNA (siScr) normalisiert und sind als Mittelwert ± SD angegeben (n=3, ungepaarter t-Test; *P < 0,05 vs. scrambled siRNA). • B: PAH-FBs wurden mit verschiedenen Konzentrationen des EP300/CREBBP-Inhibitors CCS1477 oder dem Lösungsmittel DMSO inkubiert, um die Wirkung der selektiven EP300/CREBBP-Inhibition auf die Zellproliferation (bewertet durch BrdU-Inkorporation) zu untersuchen. Als Vergleichssubstanz wurde ein weiterer EP300/CREBBP-Inhibitor (SGC-CBP30) parallel dazu unter denselben Bedingungen inkubiert. […]

MCT-PAH = MCT-PAH rat model: right heart catheterisation and histology; format: in vivo, SD-Ratten; conditions: MCT-PAH rats, three times weekly for two weeks
Description: as §6, §7, §8

SuHx-PAH = SuHx-PAH rat model (SUGEN5416/chronic hypoxia): right heart catheterisation and histology; format: in vivo, SD-Ratten; conditions: three times weekly for two weeks
Description: as §6, §7, §8

[5] = 10 mg/kg in 1 % methylcellulose, oral, vs. vehicle
[6] = 10 mg/kg oral, TPR = mPAP divided by CO
[7] = SUGEN5416/chronic hypoxia PAH rats, 10 mg/kg oral, vs. vehicle
[8] = SuHx-PAH rats, 10 mg/kg in 1 % methylcellulose, oral, vs. vehicle

With `CO[C@H]1CC[C@H](n2c([C@@H]3CCCC(=O)N3c3ccc(F)c(F)c3)nc3cc(-c4c(C)noc4C)ccc32)CC1` [CCS1477, (S)-1-(3,4-difluorophenyl)-6-(5-(3,5-dimethylisoxazol-4-yl)-1-((1r,4S)-4-methoxycyclohexyl)-1H-benzo[d]imidazol-2-yl)piperidin-2-on] the “hyperproliferativer Phänotyp (Zellproliferation, Einbau von BrdU)” value (PAH-FBs [1]) was “schwächte den hyperproliferativen Phänotyp und die Apoptoserate von PAH-FBs und PAH-SMCs deutlich ab”, the “hyperproliferativer Phänotyp” value (PAH-SMCs [2]) was “schwächte den hyperproliferativen Phänotyp und die Apoptoserate von PAH-FBs und PAH-SMCs deutlich ab” and the “Apoptoserate (Induktion von Apoptose, Cell Death Detection ELISAPLUS)” value (PAH-FBs [3]) was “schwächte den hyperproliferativen Phänotyp und die Apoptoserate von PAH-FBs und PAH-SMCs deutlich ab”. The Apoptoserate (PAH-SMCs [4]) was “schwächte den hyperproliferativen Phänotyp und die Apoptoserate von PAH-FBs und PAH-SMCs deutlich ab”, the “mediale Wanddicke der umgestalteten PAs” value (PAH-PCLS) was “signifikante Verringerung der medialen Wanddicke” and the RVSP (FHR-PAH; [5]) was “signifikanten Senkung”. The mPAP (FHR-PAH; [5]) was “signifikanten Senkung”, the “mediale Wanddicke der distalen PAs” value (FHR-PAH; 10 mg/kg oral) was “signifikant verringert” and the “molekulare Marker für Myokardhypertrophie” value (FHR-PAH; 10 mg/kg oral) was “signifikant abgeschwächt”. For the same molecule, the CO (FHR-PAH; 10 mg/kg oral, vs. vehicle) was “verbesserten sich nach der Behandlung mit der Substanz CCS1477 bei FHR-PAH und MCT-PAH signifikant”, the SV (FHR-PAH; 10 mg/kg oral, vs. vehicle) was “verbesserten sich nach der Behandlung mit der Substanz CCS1477 bei FHR-PAH und MCT-PAH signifikant” and the TPR (FHR-PAH; [6]) was “signifikanten Senkung”. The RVSP (MCT-PAH; [5]) was “signifikanten Senkung”, the mPAP (MCT-PAH; [5]) was “signifikanten Senkung” and the “mediale Wanddicke der distalen PAs” value (MCT-PAH; 10 mg/kg oral) was “signifikant verringert”. The CO (MCT-PAH; 10 mg/kg oral, vs. vehicle) was “verbesserten sich nach der Behandlung mit der Substanz CCS1477 bei FHR-PAH und MCT-PAH signifikant”, the SV (MCT-PAH; 10 mg/kg oral, vs. vehicle) was “verbesserten sich nach der Behandlung mit der Substanz CCS1477 bei FHR-PAH und MCT-PAH signifikant” and the TPR (MCT-PAH; [6]) was “signifikanten Senkung”. For the same molecule, the CO (SuHx-PAH; [7]) was “verbesserte CO und SV auch bei SUGEN5416/chronischer Hypoxie-PAH signifikant”, the SV (SuHx-PAH; [7]) was “verbesserte CO und SV auch bei SUGEN5416/chronischer Hypoxie-PAH signifikant” and the RVSP (SuHx-PAH; [8]) was “signifikanten Senkung”. For the same molecule, the mPAP (SuHx-PAH; [8]) was “signifikanten Senkung”, the “mediale Wanddicke der distalen PAs” value (SuHx-PAH; SuHx-PAH rats, 10 mg/kg oral) was “signifikant verringert” and the TPR (SuHx-PAH; SuHx-PAH rats, 10 mg/kg oral, TPR = mPAP divided by CO) was “signifikanten Senkung”.
